US7638521B2, “3-guanidinocarbonyl-1-heteroaryl-indole derivatives, preparation process, their use as medicaments, and pharmaceutical compositions comprising them” (sanofi-aventis Deutschland GmbH, priority 2002, dated 2009)
Structures can show the parent of a compound that is named as a salt.

How the values were obtained:
NHE-1 subtype = target: T1, NHE-1 subtype (Homo sapiens, UniProt P19634); experiment: NHE inhibition FLIPR test (intracellular pH recovery, BCECF) in transfected LAP-1 cells; type: cell-based; conditions: transfected LAP-1 cell line expressing NHE-1 subtype, pHi recovery after acidification, read-out: IC50 (NHE1)
T1 construct: expressed in transfected cells; host or cells: LAP-1 (parental line without endogenous NHE activity), G418 selection
T1 sequence (P19634 whole entry): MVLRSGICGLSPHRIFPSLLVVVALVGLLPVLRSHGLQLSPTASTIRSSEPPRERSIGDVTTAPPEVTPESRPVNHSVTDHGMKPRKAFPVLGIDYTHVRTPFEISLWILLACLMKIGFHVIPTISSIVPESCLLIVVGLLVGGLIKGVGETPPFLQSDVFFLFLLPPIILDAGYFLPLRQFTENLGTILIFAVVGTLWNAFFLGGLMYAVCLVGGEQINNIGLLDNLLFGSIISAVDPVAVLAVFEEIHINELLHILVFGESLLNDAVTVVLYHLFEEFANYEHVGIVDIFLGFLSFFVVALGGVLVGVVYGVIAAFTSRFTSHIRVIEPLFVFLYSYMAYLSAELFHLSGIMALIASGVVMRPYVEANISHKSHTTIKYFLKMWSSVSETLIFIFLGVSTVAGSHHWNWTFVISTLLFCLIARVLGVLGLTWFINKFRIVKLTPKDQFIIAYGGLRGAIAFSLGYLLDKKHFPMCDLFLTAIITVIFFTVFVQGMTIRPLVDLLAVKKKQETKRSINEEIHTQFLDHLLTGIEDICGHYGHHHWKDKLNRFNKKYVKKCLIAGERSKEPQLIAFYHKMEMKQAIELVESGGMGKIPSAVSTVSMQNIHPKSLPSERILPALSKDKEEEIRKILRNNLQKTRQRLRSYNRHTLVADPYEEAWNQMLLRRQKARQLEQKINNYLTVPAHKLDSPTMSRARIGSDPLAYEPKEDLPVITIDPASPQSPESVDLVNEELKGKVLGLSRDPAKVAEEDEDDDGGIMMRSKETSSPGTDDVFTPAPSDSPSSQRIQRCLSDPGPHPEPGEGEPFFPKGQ
Procedure: The NHE inhibitory activities (IC50 values) of the compounds according to the invention were determined by a FLIPR test. The test is performed in the FLIPR (Fluorescent Imaging Plate Reader) equipped with clear-bottomed and black-walled 96-well microtitration plates. […] The growth medium for the transfected cells (Iscove+10% foetal calf serum) also comprises G418 as selection antibiotic to ensure the presence of transfected sequences. The actual test begins by eliminating the growth medium and adding 100 μl of loading buffer per well (5 μM of BCECF-AM [2′,7′-bis(2-carboxyethyl)-5-(6)-carboxyfluoresceine acetoxymethyl ester] in 20 mM of NH4Cl, 115 mM of choline chloride, 1 mM of CaCl2, 5 mM of KCl, 20 mM of HEPES and 5 mM of glucose; pH 7.4 (adjusted with KOH). The cells are then incubated for 20 minutes at 37° C. This incubation results in the loading of the fluorescent dye into the cells, the fluorescence intensity of which depends on the pHi, and on the NH4Cl, which results in a slight basification of the cells. The precursor BCECF-AM, a non-fluorescent dye, is, as an ester, capable of crossing the membrane. The actual dye, which is incapable of crossing the membrane, is released inside the cell by esterases. After this 20-minute incubation, the loading buffer, which comprises NH4Cl and free BCECF-AM, is removed by washing three times in the cell washing device (Tecan Columbus), each wash being performed with 400 μl of washing buffer (133.8 mM of choline chloride, 4.7 mM of KCl, 1.25 mM of MgCl2, 1.25 mM of CaCl2, 0.97 mM of K2HPO4, 0.23 mM of KH2PO4, 5 mM of HEPES and 5 mM of glucose; pH 7.4 (adjusted with KOH)). The residual volume remaining in the wells is 90 μl (possibly between 50 and 125 μl). This washing step removes the free BCECF-AM and results in an intracellular acidification (pHi of 6.3-6.4) due to the removal of the external ammonium ions. As the equilibrium of the intracellular ammonium with the aqueous ammonia and the protons, by removal of the extracellular ammonium and by the subsequent immediate crossing of the aqueous ammonia across the cell membrane, is disrupted, the washing process results in intracellular protons remaining, which is the cause of the intracellular acidification. This acidification can result finally in the death of the cells if it lasts long enough. It is important here for the washing buffer to be free of sodium (<1 mM), otherwise the extracellular sodium ions would result in an immediate increase in the pHi on account of the activity of the cloned NHE isoforms. It is also important for all the buffers used (loading buffer, washing buffer and regeneration buffer) not to contain any HCO3-ions, otherwise the presence of bicarbonate would result in the activation of bicarbonate-dependent systems that disrupt the pHi regulation, which systems are contained in the LAP-1 parental cell line. The microtiter plates containing acidified cells are then transferred (up to 20 minutes after the acidification) to the FLIPR. In the FLIPR, the intracellular fluorescent dye is activated with light of a wavelength of 488 nm, which is generated by an argon laser, and the measuring parameters (laser power, illumination time and diaphragm of the […] camera integrated into the FLIPR) are chosen such that the average value of the fluorescent signal per well is between 30,000 and 35,000 relative fluorescence units. The actual measurement in the FLIPR starts with a photograph being taken by the CCD camera every two seconds under software control. After 10 seconds, the increase in the intracellular pH is initiated by adding 90 μl of regeneration buffer (133.8 mM of NaCl, 4.7 mM of KCl, 1.25 mM of MgCl2, 1.25 mM of CaCl2, 0.97 mM of K2HPO4, 0.23 mM of KH2PO4, 10 mM of HEPES and 5 mM of glucose; pH 7.4 (adjusted with NaOH)) using a 96-well pipette device incorporated into the FLIPR. Some wells, to which is added pure regeneration buffer, serve as positive controls (100% NHE activity). […]

Row | Compound | IC50 (NHE-1 subtype) | melting point
1 | Cl.N=C(N)NC(=O)c1cn(-c2cc(C(F)(F)F)nc3ccccc23)c2ccccc12 [Example 1, 3-Guanidinocarbonyl-1-(2-(trifluoromethyl)quinol-4-yl)-1H-indole hydrochloride] | 2360 nM | 216 °C
2 | Cl.N=C(N)NC(=O)c1cn(-c2ccnc3ccc(C(F)(F)F)cc23)c2ccccc12 [Example 2, 3-Guanidinocarbonyl-1-(6-(trifluoromethyl)quinol-4-yl)-1H-indole hydrochloride] | 220 nM | 260 °C
3 | Cl.N=C(N)NC(=O)c1cn(-c2ccnc3cc(C(F)(F)F)ccc23)c2ccccc12 [Example 3, 3-Guanidinocarbonyl-1-(7-(trifluoromethyl)quinol-4-yl)-1H-indole hydrochloride] | 250 nM | 238 °C
4 | Cl.N=C(N)NC(=O)c1cn(-c2ccnc3c(C(F)(F)F)cccc23)c2ccccc12 [Example 4, 3-Guanidinocarbonyl-1-(8-(trifluoromethyl)quinol-4-yl)-1H-indole hydrochloride] | 1470 nM | 212 °C
5 | COc1ccc2nccc(-n3cc(C(=O)NC(=N)N)c4ccccc43)c2c1.Cl [Example 5, 3-Guanidinocarbonyl-1-(6-methoxyquinol-4-yl)-1H-indole hydrochloride] | 120 nM | 266 °C
6 | COc1ccc2c(-n3cc(C(=O)NC(=N)N)c4ccccc43)ccnc2c1.Cl [Example 6, 3-Guanidinocarbonyl-1-(7-methoxyquinol-4-yl)-1H-indole hydrochloride] | 240 nM | 266 °C
7 | Cl.Cn1ccc2c(-n3cc(C(=O)NC(=N)N)c4ccccc43)ncnc21 [Example 7, 3-Guanidinocarbonyl-1-(7-methyl-7H-pyrrolo[2,3-d]pyrimidin-4-yl)-1H-indole hydrochloride] | 1.2 nM | 244 °C
8 | Cc1cc(-n2cc(C(=O)N=C(N)N)c3ccccc32)c2ccccc2n1 [Example 8, N-[1-(2-Methyl-quinolin-4-yl)-1H-indole-3-carbonyl]-guanidine trifluoroacetate] | 7.2 nM | 
9 | NC(N)=NC(=O)c1cn(-c2ccnc3cc(Cl)ccc23)c2ccccc12 [Example 9, N-[1-(7-Chloro-quinolin-4-yl)-1H-indole-3-carbonyl]-guanidine trifluoroacetate] | 250 nM | 
10 | COc1ccc2c(c1)c(C(=O)N=C(N)N)c(C)n2-c1ccnc2cc(Cl)ccc12 [Example 10, N-[1-(7-Chloro-quinolin-4-yl)-5-methoxy-2-methyl-1H-indole-3-carbonyl]-guanidine trifluoroacetate] | 3230 nM | 
11 | NC(N)=NC(=O)c1cn(-c2ccnc3ccc(F)cc23)c2ccccc12 [Example 11, N-[1-(6-Fluoro-quinolin-4-yl)-1H-indole-3-carbonyl]-guanidine trifluoroacetate] | 10 nM | 
12 | COc1ccc2c(c1)c(C(=O)N=C(N)N)c(C)n2-c1ccnc2ccc(F)cc12 [Example 12, N-[1-(6-Fluoro-quinolin-4-yl)-5-methoxy-2-methyl-1H-indole-3-carbonyl]-guanidine trifluoroacetate] | 2640 nM | 
13 | NC(N)=NC(=O)c1cn(-c2ccnc3c(F)cccc23)c2ccccc12 [Example 13, N-[1-(8-Fluoro-quinolin-4-yl)-1H-indole-3-carbonyl]-guanidine trifluoroacetate] | 2.5 nM | 
14 | COc1ccc2c(c1)c(C(=O)N=C(N)N)c(C)n2-c1ncnc2ccc(Cl)cc12 [Example 14, N-[1-(6-Chloro-quinazolin-4-yl)-5-methoxy-2-methyl-1H-indole-3-carbonyl]-guanidine trifluoroacetate] | 2560 nM | 
